{
  "source": "patent US20230227838A1",
  "about": "“ENHANCED CELL SURVIVAL AGAINST BIOTIC AND ABIOTIC STRESSES THROUGH SALICYLICK ACID-INDUCED NPR1 CONDENSATES” (priority 2020, published 2023)",
  "key": {"ETI activated by RPP1": {"system": "ETI activated by RPP1", "assay": "ATR1/RPP1-induced cell death (conductivity assay)", "type": "in vivo, Nicotiana benthamiana", "conditions": "SA/NPR1-mediated; 1 mM SA", "description": "(§1) Chemical treatment, pathogen infection and cell death assays. […] At 2 days, the bacterial colonies were scored.\nVIGS assay. The silencing of NbNPR1 (NbNPR1-RNAi) and NbCUL3 (NbCUL3-RNAi) was done using VIGS assay performed as previously described. Ten-day-old WT N. benthamiana plants were inoculated with Agrobacteria (GV3101) carrying the helper plasmid pTRV1-LIC mixed at 1:1 with a strain carrying either pTRV2-LIC (empty vector control, E.V.), pTRV2-NbPDS (positive control), pTRV2-NbNPR1 or pTRV2-NbCUL3 vectors. Ten days later, gene silencing in the mock and SA-treated plants was verified in the systemic leaves by qPCR using gene-specific and reference gene (eIF4a) primers (Table 6). NbNPR1 silencing was additionally confirmed by analysis of NbPR1 expression. The silenced leaves were used in the standard transient expression assay by agroinfiltration using strains carrying the indicated test genes; and gene expression was assayed at 2 dpi."}, "endogenous NPR1": {"molecular_target": "T1, endogenous NPR1 (Arabidopsis thaliana, UniProt P93002)", "T1 construct": "from tissue; host or cells: leaf tissue of three-week-old Arabidopsis Col-0 plants", "T1 sequence (P93002 1-593)": "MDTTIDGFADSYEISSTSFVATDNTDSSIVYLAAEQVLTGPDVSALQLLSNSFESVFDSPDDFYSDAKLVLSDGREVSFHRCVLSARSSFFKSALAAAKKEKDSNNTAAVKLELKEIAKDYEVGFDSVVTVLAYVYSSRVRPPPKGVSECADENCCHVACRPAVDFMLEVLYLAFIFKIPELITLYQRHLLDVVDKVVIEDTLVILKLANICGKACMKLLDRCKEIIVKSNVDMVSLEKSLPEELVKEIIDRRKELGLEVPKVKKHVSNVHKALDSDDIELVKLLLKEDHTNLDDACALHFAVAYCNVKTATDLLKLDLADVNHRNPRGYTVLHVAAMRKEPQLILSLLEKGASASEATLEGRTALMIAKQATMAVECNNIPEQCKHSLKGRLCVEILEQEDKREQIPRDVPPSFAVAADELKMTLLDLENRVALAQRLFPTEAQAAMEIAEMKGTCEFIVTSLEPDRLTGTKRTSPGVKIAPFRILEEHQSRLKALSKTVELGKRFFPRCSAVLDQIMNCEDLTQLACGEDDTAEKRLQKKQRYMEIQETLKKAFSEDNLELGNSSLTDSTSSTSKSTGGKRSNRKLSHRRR", "assay": "Cell fractionation of endogenous NPR1 (cytoplasmic/nuclear)", "type": "in vivo", "conditions": "6 hr, Col-0", "method": "Cell fractionation. Cytoplasmic and nuclear proteins were sequentially isolated from three-week-old Arabidopsis (Col-0) plants using 1 g of leaf tissue and a sucrose gradient protocol described previously with modifications. Tissue was homogenized in lysis buffer (20 mM Tris-HCl, pH 7.5, 20 mM KCl, 2 mM EDTA, 2.5 mM MgCl2, 25% glycerol, 0.25 M Sucrose) supplemented with 100 μM MG132, EDTA-free protease inhibitor cocktail, 1 mM PMSF and 5 mM DTT. The lysate was filtered through a 70 μm filter and centrifuged at 20,000 g for 15 min at 4° C., and the supernatant was collected (cytoplasmic fraction). The pellet was washed four times with 5 ml of NRBT buffer (20 mM Tris-HCl, pH 7.4, 25% glycerol, 2.5 mM MgCl2, and 0.2% Triton X-100). After the last wash, the pellet was resuspended with 500 μl of NRB2 buffer (20 mM Tris-HCl, pH 7.5, 0.25 M Sucrose, 10 mM MgCl2, 0.5% Triton X-100) supplemented with protease inhibitor cocktail and 5 mM BME. The obtained suspension was layered at 1:1 on top of the NRB3 buffer (20 mM Tris-HCl, pH 7.5, 1.7 M Sucrose, 10 mM MgCl2, 0.5% Triton X-100) supplemented with protease inhibitor cocktail and 5 mM BME, centrifuged at 16,000 g for 45 min at 4° C. The top layer was removed and the pellet was resuspended with 200 μl of plant extraction buffer containing 1% Triton X-100, protease inhibitor cocktail and 5 mM BME (nuclear fraction). […]"}, "WRKY70-GFP": {"system": "WRKY70-GFP", "assay": "Stability and ubiquitination of WRKY70-GFP", "type": "in vivo, Arabidopsis thaliana", "method": "as §1\nProtein analysis and IP. Recombinant protein analysis was performed using transient expression in N. benthamiana, or stable over-expression in transgenic Arabidopsis, or expression in E. coli. Total protein extraction from plants was performed by homogenizing leaf tissue in the plant extraction buffer [50 mM Tris-HCl (pH 7.5), 150 mM NaCl, 5 mM EDTA, 0.2% Triton X-100, 0.2% Nonidet P-40] supplemented with 1 mM PMSF, 100 μM MG132, and EDTA-free protease inhibitor cocktail (Roche). For ubiquitinated protein analysis in plants, 100 μM of DUB (deubiquitinase) inhibitor (LifeSensors) and 10 mM NEM were added. Next, the lysates were cleared by centrifugation at 14,000 rpm for 15 min followed by filtering through a 0.2 μm filter. […] Pull-downs or IP experiments were done on total protein extracts by incubating protein samples in the lysis buffer overnight with indicated affinity tag or antibody conjugated to agarose or magnetic beads: GFP-trap agarose beads (Chromotek) for GFP fusions; RFP-trap agarose beads (Chromotek) for mCherry fusions; anti-HA magnetic beads (ThermoFisher) for HA tag fusions; anti-DYKDDDDK coupled magnetic agarose (ThermoFisher) for FLAG tag fusions; and glutathione magnetic agarose (ThermoFisher) for GST fusions. […]"}},
  "data": [
    {"smiles": "O=C(O)c1ccccc1O", "note": "[SA, salicylic acid]", "values": [
      {"measurement": "ETI activated by RPP1 (effector ATR1)", "setting": "ETI activated by RPP1", "value": "inhibition"},
      {"measurement": "subcellular accumulation of endogenous NPR1", "setting": "endogenous NPR1; 1 mM SA", "value": "more NPR1 accumulated in the cytoplasm"},
      {"measurement": "subcellular accumulation of endogenous NPR1", "setting": "endogenous NPR1; 0.1 and 0.5 mM SA", "value": "increased nuclear accumulation"},
      {"measurement": "ubiquitination of WRKY70-GFP", "setting": "WRKY70-GFP; 1 mM SA for 24 h, WT, not npr1-2", "value": "increased ubiquitination of WRKY70-GFP"},
      {"measurement": "WRKY70-GFP protein level", "setting": "WRKY70-GFP; 1 mM SA for 24 hr, NPR1- and proteasome-dependent", "value": "reduced"}
    ]}
  ]
}
